The IC50 is the point on the concentration scale where inhibition reaches its midpoint.

The structures appear in SMILES notation.

22 compounds from ChEMBL document CHEMBL1909046, “DrugMatrix in vitro pharmacology data” can be followed below.

The target in test [1] is T1, Cholecystokinin receptor type A (Homo sapiens, UniProt P32238). Note: in other assays of this panel Not Active means under 50% inhibition at 10 µM.
T1 sequence (P32238 whole entry): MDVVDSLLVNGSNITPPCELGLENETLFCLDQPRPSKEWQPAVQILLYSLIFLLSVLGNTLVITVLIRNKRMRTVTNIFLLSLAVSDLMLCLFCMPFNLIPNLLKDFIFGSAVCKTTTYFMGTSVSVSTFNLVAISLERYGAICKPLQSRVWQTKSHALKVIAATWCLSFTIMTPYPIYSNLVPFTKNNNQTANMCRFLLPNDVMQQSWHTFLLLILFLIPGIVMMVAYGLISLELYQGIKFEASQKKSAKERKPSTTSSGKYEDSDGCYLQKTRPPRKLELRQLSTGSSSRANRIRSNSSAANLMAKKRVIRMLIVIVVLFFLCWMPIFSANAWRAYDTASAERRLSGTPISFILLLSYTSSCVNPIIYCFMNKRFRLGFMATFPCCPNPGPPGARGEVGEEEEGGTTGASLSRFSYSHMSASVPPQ
The class given is cell membranes, Membrane. The conditions noted are these: 1321-n1.

The target in test [2] is Mitogen-activated protein kinase 14 (Homo sapiens, UniProt Q16539). On the set-up: species or system Escherichia coli.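 Note: inhibition of p38alpha enzyme activity in a biochemical kinase assay, with myelin basic protein serving as substrate; in other assays of this panel Not Active means under 50% inhibition at 10 µM.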
Mitogen-activated protein kinase 14, sequence (Q16539 whole entry): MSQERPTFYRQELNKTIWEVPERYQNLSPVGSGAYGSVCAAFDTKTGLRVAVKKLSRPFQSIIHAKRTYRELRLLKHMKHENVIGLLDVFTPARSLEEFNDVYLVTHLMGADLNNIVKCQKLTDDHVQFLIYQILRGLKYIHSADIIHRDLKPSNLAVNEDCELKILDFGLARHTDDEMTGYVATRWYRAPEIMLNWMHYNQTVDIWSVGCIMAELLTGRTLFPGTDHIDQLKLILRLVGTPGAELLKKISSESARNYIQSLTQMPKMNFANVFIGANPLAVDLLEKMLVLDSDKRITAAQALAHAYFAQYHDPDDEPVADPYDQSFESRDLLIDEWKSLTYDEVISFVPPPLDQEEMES
Test [3] addresses T2, C-X-C chemokine receptor type 2 (Homo sapiens, UniProt P25025).
T2 sequence (P25025 whole entry): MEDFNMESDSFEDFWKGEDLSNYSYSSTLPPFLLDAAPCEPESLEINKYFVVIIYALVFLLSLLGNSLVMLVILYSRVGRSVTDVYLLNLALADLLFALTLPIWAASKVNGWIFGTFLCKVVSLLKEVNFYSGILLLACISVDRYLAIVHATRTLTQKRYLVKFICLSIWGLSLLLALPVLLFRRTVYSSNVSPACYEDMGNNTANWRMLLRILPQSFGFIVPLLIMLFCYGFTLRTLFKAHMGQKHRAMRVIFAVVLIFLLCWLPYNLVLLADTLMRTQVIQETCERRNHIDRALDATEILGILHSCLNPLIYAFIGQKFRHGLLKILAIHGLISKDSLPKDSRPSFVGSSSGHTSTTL
The class given is cell membranes, Membrane. As to conditions: cho-k1.

Test [4] addresses Sigma non-opioid intracellular receptor 1 (Homo sapiens, UniProt Q99720). Put plainly: DRUGMATRIX: Sigma1 radioligand binding (ligand: [3H] Haloperidol). The class given is cell membranes, Jurkat, Membrane. The conditions noted are these: jurkat; Not Active = under 50% inhibition at 10 µM.
The target in test [5] is Insulin receptor (Rattus norvegicus, UniProt P15127). The class given is cell membranes, Wistar, Liver, Membrane. Note: in other assays of this panel Not Active means under 50% inhibition at 10 µM.
Insulin receptor, sequence (P15127 27-759 limits assumed): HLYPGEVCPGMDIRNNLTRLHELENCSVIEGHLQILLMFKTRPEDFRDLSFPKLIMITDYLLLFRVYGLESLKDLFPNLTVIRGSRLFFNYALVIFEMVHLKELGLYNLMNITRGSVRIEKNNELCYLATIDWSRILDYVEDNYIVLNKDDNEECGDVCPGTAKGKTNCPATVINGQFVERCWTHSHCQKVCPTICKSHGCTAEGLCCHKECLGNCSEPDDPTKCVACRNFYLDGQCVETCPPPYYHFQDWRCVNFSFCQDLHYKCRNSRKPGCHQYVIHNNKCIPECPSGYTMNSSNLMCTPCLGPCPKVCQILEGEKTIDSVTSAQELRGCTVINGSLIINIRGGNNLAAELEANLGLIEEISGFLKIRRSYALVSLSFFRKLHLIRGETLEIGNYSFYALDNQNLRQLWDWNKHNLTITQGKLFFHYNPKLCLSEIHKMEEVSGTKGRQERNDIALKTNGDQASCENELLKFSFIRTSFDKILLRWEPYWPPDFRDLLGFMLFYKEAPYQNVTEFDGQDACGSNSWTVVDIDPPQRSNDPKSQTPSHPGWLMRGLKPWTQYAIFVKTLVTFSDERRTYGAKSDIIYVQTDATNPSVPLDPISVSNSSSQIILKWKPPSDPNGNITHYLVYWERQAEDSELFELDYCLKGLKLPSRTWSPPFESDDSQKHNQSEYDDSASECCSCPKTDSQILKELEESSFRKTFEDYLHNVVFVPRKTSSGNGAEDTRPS
Insulin receptor, sequence (P15127 764-1383 limits assumed): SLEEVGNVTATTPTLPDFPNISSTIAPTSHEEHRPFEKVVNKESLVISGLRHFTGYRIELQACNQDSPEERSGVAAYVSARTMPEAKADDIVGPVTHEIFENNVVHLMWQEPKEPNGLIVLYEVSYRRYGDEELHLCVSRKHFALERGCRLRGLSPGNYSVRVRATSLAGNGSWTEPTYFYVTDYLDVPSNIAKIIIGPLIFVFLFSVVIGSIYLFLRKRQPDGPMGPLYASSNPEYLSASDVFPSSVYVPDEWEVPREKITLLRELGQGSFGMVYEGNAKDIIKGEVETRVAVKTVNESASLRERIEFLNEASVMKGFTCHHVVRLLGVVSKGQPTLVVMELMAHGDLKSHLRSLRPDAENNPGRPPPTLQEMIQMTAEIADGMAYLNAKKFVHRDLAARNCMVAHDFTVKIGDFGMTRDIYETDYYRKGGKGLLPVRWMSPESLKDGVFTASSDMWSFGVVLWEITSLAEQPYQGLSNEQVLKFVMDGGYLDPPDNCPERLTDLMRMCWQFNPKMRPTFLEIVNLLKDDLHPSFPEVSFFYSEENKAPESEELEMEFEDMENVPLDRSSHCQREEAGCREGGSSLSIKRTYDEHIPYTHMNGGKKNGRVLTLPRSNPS
In test [6] the target is T3, Polyunsaturated fatty acid lipoxygenase ALOX15 (Oryctolagus cuniculus, UniProt P12530).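 Note: inhibition of 15-lipoxygenase enzyme activity measured with linoleic acid as the substrate; in other assays of this panel Not Active means under 50% inhibition at 10 µM.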
T3 sequence (P12530 whole entry): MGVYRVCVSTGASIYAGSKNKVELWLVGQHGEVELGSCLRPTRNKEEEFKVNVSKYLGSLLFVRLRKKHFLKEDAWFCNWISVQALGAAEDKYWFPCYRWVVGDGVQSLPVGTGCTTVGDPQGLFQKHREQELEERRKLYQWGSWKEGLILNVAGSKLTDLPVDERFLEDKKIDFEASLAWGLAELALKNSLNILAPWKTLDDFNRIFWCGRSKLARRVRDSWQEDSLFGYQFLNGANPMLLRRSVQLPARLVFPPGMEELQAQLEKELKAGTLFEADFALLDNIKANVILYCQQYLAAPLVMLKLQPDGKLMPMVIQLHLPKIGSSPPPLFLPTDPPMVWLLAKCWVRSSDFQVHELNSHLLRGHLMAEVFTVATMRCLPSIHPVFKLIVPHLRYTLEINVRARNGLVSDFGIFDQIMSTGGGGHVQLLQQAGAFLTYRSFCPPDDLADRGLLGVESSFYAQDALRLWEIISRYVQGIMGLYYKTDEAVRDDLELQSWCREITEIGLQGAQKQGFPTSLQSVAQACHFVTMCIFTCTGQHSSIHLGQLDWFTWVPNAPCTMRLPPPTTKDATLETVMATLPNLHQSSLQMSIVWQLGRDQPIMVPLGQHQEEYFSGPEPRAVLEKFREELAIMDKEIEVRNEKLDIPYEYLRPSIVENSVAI
Put plainly: biochemical. The class given is tissue-based, Reticulocytes.

In test [7] the target is Estrogen receptor beta (Homo sapiens, UniProt Q92731). The conditions noted are these: sf9. Note: in other assays of this panel Not Active means under 50% inhibition at 10 µM.
Estrogen receptor beta, sequence (Q92731 whole entry): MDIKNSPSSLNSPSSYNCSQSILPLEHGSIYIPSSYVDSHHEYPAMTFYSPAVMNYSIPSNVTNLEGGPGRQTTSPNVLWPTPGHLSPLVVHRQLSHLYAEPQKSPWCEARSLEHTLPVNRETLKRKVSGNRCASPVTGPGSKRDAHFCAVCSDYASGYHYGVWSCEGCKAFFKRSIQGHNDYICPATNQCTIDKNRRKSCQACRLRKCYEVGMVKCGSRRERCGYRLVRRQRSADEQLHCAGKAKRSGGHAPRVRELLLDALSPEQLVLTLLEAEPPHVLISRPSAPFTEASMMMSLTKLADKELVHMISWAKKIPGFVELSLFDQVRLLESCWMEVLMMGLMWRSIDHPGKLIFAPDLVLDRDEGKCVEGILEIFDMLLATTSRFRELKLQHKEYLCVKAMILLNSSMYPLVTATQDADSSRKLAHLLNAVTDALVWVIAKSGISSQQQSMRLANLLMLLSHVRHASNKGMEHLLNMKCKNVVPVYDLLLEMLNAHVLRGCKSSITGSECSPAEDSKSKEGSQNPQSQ

Sigma non-opioid intracellular receptor 1, sequence (Q99720 whole entry): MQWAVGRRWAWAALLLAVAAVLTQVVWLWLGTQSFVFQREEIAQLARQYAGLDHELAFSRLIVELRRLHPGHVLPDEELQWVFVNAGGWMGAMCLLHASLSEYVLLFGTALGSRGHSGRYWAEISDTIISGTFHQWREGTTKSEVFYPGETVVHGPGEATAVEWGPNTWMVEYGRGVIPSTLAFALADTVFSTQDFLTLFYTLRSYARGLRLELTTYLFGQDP

With `COc1cc2c3cc1Oc1cc(ccc1O)C[C@@H]1c4c(cc(OC)c(O)c4Oc4ccc(cc4)C[C@@H]3N(C)CC2)CC[N+]1(C)C.[Cl-]`, the IC50 entry in test [1], in test [2], in test [3], in test [4], in test [5] and in test [6] (reticulocytes) was “Not Active” throughout. Moreover, in test [7], the IC50 result was “Not Active”.
Regarding `Nc1nc2c(ncn2COCCO)c(=O)[nH]1` [ACYCLOVIR], the IC50 entry in test [1], in test [2], in test [3], in test [4], in test [5] and in test [6] (reticulocytes) was “Not Active” each time.
On to `O=C(O)CCCc1ccc(N(CCCl)CCCl)cc1` [CHLORAMBUCIL], for which the IC50 entry in test [1], in test [2], in test [3], in test [4], in test [5] and in test [6] (reticulocytes) was “Not Active” throughout.
On to `CC(C)(Oc1ccc(Cl)cc1)C(=O)O` [CLOFIBRIC ACID], for which the IC50 result in test [1], in test [2], in test [3], in test [4], in test [5] and in test [6] (reticulocytes) was “Not Active” each time.
Turning to `C[C@]12CCC(=O)C=C1CC[C@@H]1[C@@H]2CC[C@@]2(C)[C@H]1CC[C@]2(C)O` [METHYLTESTOSTERONE], the half-inhibitory concentration (IC50) result in test [1], in test [2], in test [3], in test [4], in test [5] and in test [6] (reticulocytes) was “Not Active” throughout.
As for `C[C@]12CC[C@@H]3c4ccc(O)cc4CC[C@H]3[C@@H]1CCC2=O` [ESTRONE], the half-maximal inhibitory concentration (IC50) entry in test [1] was “Not Active”; in test [2] it was “Not Active”; in test [3], “Not Active”; in test [4] it was “Not Active”; in test [5], “Not Active”; in test [6] (read-out: IC50), 6.59 µM.
On to `Clc1cccc(Cl)c1NC1=NCCN1` [CLONIDINE], for which the half-inhibitory concentration (IC50) result in test [1], in test [2], in test [3], in test [4], in test [5] and in test [6] (reticulocytes) was “Not Active” in each case.
On to `CN(C)CCCN1c2ccccc2Sc2ccc(Cl)cc21` [CHLORPROMAZINE], for which the IC50 entry in test [1] was “Not Active”; in test [2], “Not Active”; in test [3], “Not Active”; in test [5], “Not Active”; in test [6] (read-out: IC50) it was 16 µM; in test [7] it was “Not Active”.
`C[C@](N)(Cc1ccc(O)c(O)c1)C(=O)O` [METHYLDOPA]: the IC50 result in test [1] was “Not Active”; in test [2], “Not Active”; in test [3], “Not Active”; in test [4], “Not Active”; in test [5], “Not Active”; in test [6] (read-out: IC50) it was 2.13 µM.
In the case of `CC(O)CO` (stereo not drawn) [PROPYLENE GLYCOL], the IC50 entry in test [1], in test [2], in test [3], in test [4], in test [5] and in test [6] (reticulocytes) was “Not Active” throughout.
Regarding `CCC1(c2ccc(N)cc2)CCC(=O)NC1=O` (stereo not drawn) [AMINOGLUTETHIMIDE], the IC50 entry in test [1], in test [2], in test [3], in test [4], in test [5] and in test [6] (reticulocytes) was “Not Active” each time.
As for `CNCCCN1c2ccccc2CCc2ccccc21` [DESIPRAMINE], the IC50 entry in test [1], in test [2], in test [3], in test [4], in test [5] and in test [6] (reticulocytes) was “Not Active” each time.
For `N=C(N)NCCN1CCCCCCC1` [GUANETHIDINE], the IC50 entry in test [1], in test [2], in test [3], in test [4], in test [5] and in test [6] (reticulocytes) was “Not Active” each time.
On to `C[C@H](CCC(=O)O)[C@H]1CC[C@H]2[C@@H]3[C@H](O)C[C@@H]4C[C@H](O)CC[C@]4(C)[C@H]3C[C@H](O)[C@]12C` [CHOLIC ACID], for which the IC50 result in test [1], in test [2], in test [3], in test [4], in test [5] and in test [6] (reticulocytes) was “Not Active” throughout.
Regarding `O=C(CCCN1CC=C(n2c(=O)[nH]c3ccccc32)CC1)c1ccc(F)cc1` [DROPERIDOL], the half-inhibitory concentration (IC50) result in test [1], in test [2], in test [3], in test [5], in test [6] (reticulocytes) and in test [7] was “Not Active” each time.
As to `CC(=O)O[C@@]12CO[C@@H]1C[C@H](O)[C@@]1(C)C(=O)[C@H](O)C3=C(C)[C@@H](OC(=O)[C@H](O)[C@@H](NC(=O)OC(C)(C)C)c4ccccc4)C[C@@](O)([C@@H](OC(=O)c4ccccc4)[C@H]21)C3(C)C.O.O.O` [DOCETAXEL], the half-maximal inhibitory concentration (IC50) entry in test [1], in test [2], in test [3], in test [4], in test [5] and in test [6] (reticulocytes) was “Not Active” each time.
For the compound `C[C@H]1c2cccc(O)c2C(=O)C2=C(O)[C@]3(O)C(=O)C(C(N)=O)=C(O)[C@@H](N(C)C)[C@@H]3[C@@H](O)[C@@H]21.O` [DOXYCYCLINE], the IC50 result in test [1], in test [2], in test [3], in test [4], in test [5] and in test [6] (reticulocytes) was “Not Active” throughout.
Consider `NCCCCCC(=O)O` [AMINOCAPROIC ACID], for which the IC50 entry in test [1], in test [2], in test [3], in test [4], in test [5] and in test [6] (reticulocytes) was “Not Active” each time.
Take `CNCCc1ccccn1` [BETAHISTINE]: the IC50 entry in test [1], in test [2], in test [3], in test [4], in test [5] and in test [6] (reticulocytes) was “Not Active” in each case.
As for `Nc1nc(N)nc(-c2cc(Cl)ccc2Cl)n1.O=C(O)/C=C\C(=O)O` [IRSOGLADINE MALEATE], the IC50 entry in test [1], in test [2], in test [3], in test [4], in test [5] and in test [6] (reticulocytes) was “Not Active” each time.
Consider `Nc1ncn([C@@H]2O[C@H](CO)[C@@H](O)[C@H]2O)c(=O)n1` [AZACITIDINE], for which the IC50 result in test [1], in test [2], in test [3], in test [4], in test [5] and in test [6] (reticulocytes) was “Not Active” each time.
As to `Cc1ccc(-c2cc(C(F)(F)F)nn2-c2ccc(S(N)(=O)=O)cc2)cc1` [CELECOXIB], the half-maximal inhibitory concentration (IC50) entry in test [1], in test [2], in test [3], in test [4], in test [5] and in test [6] (reticulocytes) was “Not Active” each time.
